Relative viability data for 1 cell line are collected here from the supplement of paper PMC10307832.

Experiment in all cases: relative viability (nuclei count vs DMSO), 5 days (fraction); higher = more cells survive
Compound in the assay “Motesanib + Pictilisib”: CC1(C)CNc2cc(NC(=O)c3cccnc3NCc3ccncc3)ccc21 [Motesanib] + CS(=O)(=O)N1CCN(Cc2cc3nc(-c4cccc5[nH]ncc45)nc(N4CCOCC4)c3s2)CC1 [Pictilisib] (partner 1 µM)
The procedure, abridged: (§1)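 A single step with final 0.05% Triton X-100, 1% formaldehyde and 1 ug/ml Hoechst fixed the cells and stained nuclei 5 days after treatment. Lung cancer cell lines in 1536-well plates had been treated by pin tool the day after seeding with one drug alone or a fixed anchor-drug dose plus five library-drug doses (not always all listed) in √10 steps, and nuclei were counted on 4× images. Relative viability is the ratio of nuclei in treated wells to nuclei in vehicle wells, taken as the median of duplicate plates.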

Compound in assay [1]: C[C@@]1(C(=O)Nc2ccc(F)nc2)CCCN1c1nc(Nc2cc(C3CC3)n[nH]2)c2cccn2n1 + O=C(CCCCCCC(=O)Nc1ccccc1)NO [Vorinostat] (partner 1 µM)
In outline:
as §1

Compound in assay [2]: C[C@@]1(C(=O)Nc2ccc(F)nc2)CCCN1c1nc(Nc2cc(C3CC3)n[nH]2)c2cccn2n1 + COc1cc2c(Oc3ccc(NC(=O)C4(C(=O)Nc5ccc(F)cc5)CC4)cc3F)ccnc2cc1OCCCN1CCOCC1 [Foretinib] (partner 0.25 µM)
In outline: as §1

Compound in assay [3]: C[C@@]1(C(=O)Nc2ccc(F)nc2)CCCN1c1nc(Nc2cc(C3CC3)n[nH]2)c2cccn2n1 + CS(=O)(=O)CCNCc1ccc(-c2ccc3ncnc(Nc4ccc(OCc5cccc(F)c5)c(Cl)c4)c3c2)o1 [Lapatinib] (partner 2 µM)
The procedure, abridged: as §1

For UMC-11, the relative viability in the assay with Motesanib + Pictilisib (first compound 0.01 µM) worked out at 0.778; in the assay with Motesanib + Pictilisib (first compound 0.03162 µM), 0.923; in the assay with Motesanib + Pictilisib (first compound 0.1 µM), 0.5; with Motesanib + Pictilisib (first compound 0.3162 µM), 0.759; in the assay with Motesanib + Pictilisib (first compound 1 µM), 0.863; in assay [1] (first compound 0.04 µM), 0.398. Further, the relative viability in assay [1] (first compound 0.1265 µM) is 0.432; in assay [1] (first compound 0.4 µM) it was 0.359; in assay [1] (first compound 1.265 µM), 0.258; in assay [2] (first compound 0.04 µM), 1.09; in assay [2] (first compound 0.1265 µM), 1.12; in assay [2] (first compound 0.4 µM) it was 0.901. Also, the relative viability worked out at 0.299 in assay [2] (first compound 1.265 µM); 1.02 in assay [3] (first compound 0.04 µM); 1.02 in assay [3] (first compound 0.1265 µM); 0.826 in assay [3] (first compound 0.4 µM); 0.805 in assay [3] (first compound 1.265 µM).
